Molecular target: T1, HDAC6 (Homo sapiens, UniProt Q9UBN7)
T1 construct: Full length human recombinant HDAC6 protein was expressed in baculoviral system; made in house; host or cells: baculoviral system
T1 sequence (Q9UBN7 1-1215): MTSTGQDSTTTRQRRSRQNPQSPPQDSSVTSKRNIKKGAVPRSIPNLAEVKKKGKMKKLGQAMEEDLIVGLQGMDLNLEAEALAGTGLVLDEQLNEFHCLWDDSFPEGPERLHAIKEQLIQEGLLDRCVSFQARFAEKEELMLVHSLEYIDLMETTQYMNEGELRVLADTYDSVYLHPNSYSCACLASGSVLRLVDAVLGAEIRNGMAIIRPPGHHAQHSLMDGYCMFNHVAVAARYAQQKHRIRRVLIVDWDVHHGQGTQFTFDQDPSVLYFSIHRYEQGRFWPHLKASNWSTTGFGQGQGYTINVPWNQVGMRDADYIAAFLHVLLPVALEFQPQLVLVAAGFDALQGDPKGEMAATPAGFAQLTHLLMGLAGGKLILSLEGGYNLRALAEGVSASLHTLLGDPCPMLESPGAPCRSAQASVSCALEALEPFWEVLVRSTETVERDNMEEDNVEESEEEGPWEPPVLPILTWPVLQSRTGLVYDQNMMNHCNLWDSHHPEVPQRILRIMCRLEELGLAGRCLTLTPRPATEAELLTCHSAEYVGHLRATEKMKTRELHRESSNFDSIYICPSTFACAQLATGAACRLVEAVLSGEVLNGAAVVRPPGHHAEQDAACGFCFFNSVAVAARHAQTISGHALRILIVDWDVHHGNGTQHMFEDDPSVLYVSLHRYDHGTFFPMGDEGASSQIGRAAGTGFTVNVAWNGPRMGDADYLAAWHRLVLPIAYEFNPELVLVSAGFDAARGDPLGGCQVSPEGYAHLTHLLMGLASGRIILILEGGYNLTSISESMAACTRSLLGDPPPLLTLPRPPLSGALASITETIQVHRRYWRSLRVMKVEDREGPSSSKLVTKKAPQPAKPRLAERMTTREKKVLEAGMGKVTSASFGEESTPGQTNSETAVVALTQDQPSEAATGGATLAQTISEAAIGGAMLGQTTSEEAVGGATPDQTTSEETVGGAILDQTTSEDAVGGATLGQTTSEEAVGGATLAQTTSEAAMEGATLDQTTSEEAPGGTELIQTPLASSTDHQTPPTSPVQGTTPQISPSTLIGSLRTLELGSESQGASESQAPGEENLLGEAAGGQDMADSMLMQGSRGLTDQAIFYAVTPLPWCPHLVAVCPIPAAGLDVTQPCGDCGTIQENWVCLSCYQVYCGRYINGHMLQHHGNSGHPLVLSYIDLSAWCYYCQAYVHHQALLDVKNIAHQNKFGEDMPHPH
Assay: In vitro Histone Deacetylase Assay (enzymatic HDAC6 electrophoretic mobility shift assay)
Type: biochemical
Conditions: full length human recombinant HDAC6, 1 nM enzyme, 2 μM peptide substrate RHKK(Ac)-NH2, 25° C.; read-out: HDAC6 activity range
Procedure, shortened: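 Full-length recombinant human HDAC6 (baculovirus-expressed, 1 nM) was incubated at 25 °C with 2 μM fluorescent RHKK(Ac)-NH2 peptide in HEPES pH 7.5, KCl, BSA, Triton X-100 and 1% DMSO, then SDS-quenched. Substrate and product were separated by microfluidic mobility shift, and IC50 came from 4-parameter fits of 12-point, 3-fold dilution curves.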

Structure (SMILES)	IC50
O=C(NO)c1ccc2c(c1)CC[C@]1(CCN(c3cccc4ccccc34)C1=O)C2 [Compound I-89, (R)-N-hydroxy-1′-(naphthalen-1-yl)-2′-oxo-3,4-dihydro-1H-spiro[naphthalene-2,3′-pyrrolidine]-6-carboxamide]	≤ 100 nM
O=C(NO)c1ccc2c(c1)CCC1(CCN(CC3CCOCC3)C1=O)S2(=O)=O (centres unmarked) [Compound I-241, N-hydroxy-2-oxo-1-((tetrahydro-2H-pyran-4-yl)methyl)spiro[pyrrolidine-3,2′-thiochromane]-6′-carboxamide 1′,1′-dioxide]	> 500 nM
O=C(NO)c1ccc2c(c1)CC[C@]1(CCN(CC3CCC3)C1=O)C2 [Compound I-33, (R)-1′-(cyclobutylmethyl)-N-hydroxy-2′-oxo-3,4-dihydro-1H-spiro[naphthalene-2,3′-pyrrolidine]-6-carboxamide]	≤ 100 nM
CCN1CC2(CCc3cc(C(=O)NO)ccc3C2)CC1=O (single isomer, unassigned) [Compound I-206]	≤ 100 nM
CC(C)N1CC[C@]2(CCc3cc(C(=O)NO)ccc3C2)C1=O [Compound I-24, (R)-N-hydroxy-1′-isopropyl-2′-oxo-3,4-dihydro-1H-spiro[naphthalene-2,3′-pyrrolidine]-6-carboxamide]	≤ 100 nM
COc1ccc(N2CC[C@]3(CCc4cc(C(=O)NO)ccc4C3)C2=O)cc1 [Compound I-124, (R)-N-hydroxy-1′-(4-methoxyphenyl)-2′-oxo-3,4-dihydro-1H-spiro[naphthalene-2,3′-pyrrolidine]-6-carboxamide]	≤ 100 nM
COCCn1c(N2CC[C@]3(CCc4cc(C(=O)NO)ccc4C3)C2=O)nc2ccccc21 [Compound I-12, (R)-N-hydroxy-1′-(1-(2-methoxyethyl)-1H-benzo[d]imidazol-2-yl)-2′-oxo-3,4-dihydro-1H-spiro[naphthalene-2,3′-pyrrolidine]-6-carboxamide]	100 to 500 nM
CC(C)CN1CCCC2(CCc3cc(C(=O)NO)ccc3C2)C1=O (single isomer, unassigned) [Compound I-189]	≤ 100 nM
O=C(NO)c1ccc2c(c1)CC[C@]1(CCN(Cc3ccccc3Cl)C1=O)C2 [Compound I-40, (R)-1′-(2-chlorobenzyl)-N-hydroxy-2′-oxo-3,4-dihydro-1H-spiro[naphthalene-2,3′-pyrrolidine]-6-carboxamide]	≤ 100 nM
O=C(NO)c1ccc2c(c1)CC[C@]1(CCN(Cc3ccccc3OC(F)(F)F)C1=O)C2 [Compound I-41, (R)-N-hydroxy-2′-oxo-1′-(2-(trifluoromethoxy)benzyl)-3,4-dihydro-1H-spiro[naphthalene-2,3′-pyrrolidine]-6-carboxamide]	≤ 100 nM
O=C(NO)c1ccc2c(c1)CC[C@]1(CCN(Cc3ccccn3)C1=O)C2 [Compound I-52, (R)-N-hydroxy-2′-oxo-1′-(pyridin-2-ylmethyl)-3,4-dihydro-1H-spiro[naphthalene-2,3′-pyrrolidine]-6-carboxamide]	≤ 100 nM
CN1C[C@@]2(CCc3cc(C(=O)NO)ccc3C2)CC1=O (single isomer, unassigned) [Compound I-201]	≤ 100 nM
COc1cccc(N2CC[C@]3(CCc4cc(C(=O)NO)ccc4C3)C2=O)c1F [Compound I-125, (2R)-1′-(2-fluoro-3-methoxyphenyl)-N-hydroxy-2′-oxo-3,4-dihydro-1H-spiro[naphthalene-2,3′-pyrrolidine]-6-carboxamide]	≤ 100 nM
O=C(NO)c1ccc2c(c1)CC[C@@]1(CCN(c3ccncc3Cl)C1=O)C2 [Compound I-141, (S)-1′-(3-chloropyridin-4-yl)-N-hydroxy-2′-oxo-3,4-dihydro-1H-spiro[naphthalene-2,3′-pyrrolidine]-6-carboxamide]	≤ 100 nM
O=C(NO)c1ccc2c(c1)CC[C@]1(CCN(c3cc(F)ccc3F)C1=O)C2 [Compound I-167, (R)-1′-(2,5-difluorophenyl)-N-hydroxy-2′-oxo-3,4-dihydro-1H-spiro[naphthalene-2,3'-pyrrolidine]-6-carboxamide]	≤ 100 nM
O=C(NO)c1ccc2c(c1)CC[C@@]1(CCN(Cc3cc(Cl)ccc3Cl)C1=O)C2 [Compound I-74, (S)-1′-(2,5-dichlorobenzyl)-N-hydroxy-2′-oxo-3,4-dihydro-1H-spiro[naphthalene-2,3′-pyrrolidine]-6-carboxamide]	100 to 500 nM
Cc1ccc(N2CC[C@@]3(CCc4cc(C(=O)NO)ccc4C3)C2=O)cn1 [Compound I-134, (S)-N-hydroxy-1′-(6-methylpyridin-3-yl)-2′-oxo-3,4-dihydro-1H-spiro[naphthalene-2,3′-pyrrolidine]-6-carboxamide]	≤ 100 nM
O=C(NO)c1ccc2c(c1)CC[C@@]1(CCN(c3ccc(Cl)cn3)C1=O)C2 [Compound I-130, (S)-1′-(5-chloropyridin-2-yl)-N-hydroxy-2′-oxo-3,4-dihydro-1H-spiro[naphthalene-2,3′-pyrrolidine]-6-carboxamide]	≤ 100 nM
O=C(NO)c1ccc2c(c1)CC[C@]1(CCN(c3ccc4c(c3)OCO4)C1=O)C2 [Compound I-91, (R)-1′-(benzo[d][1,3]dioxol-5-yl)-N-hydroxy-2′-oxo-3,4-dihydro-1H-spiro[naphthalene-2,3′-pyrrolidine]-6-carboxamide]	≤ 100 nM
COc1cccc(CN2CC[C@]3(CCc4cc(C(=O)NO)ccc4C3)C2=O)c1 [Compound I-51, (R)-N-hydroxy-1′-(3-methoxybenzyl)-2′-oxo-3,4-dihydro-1H-spiro[naphthalene-2,3′-pyrrolidine]-6-carboxamide]	≤ 100 nM
COc1ccccc1N1CC[C@@]2(CCc3cc(C(=O)NO)ccc3C2)C1=O [Compound I-115, (S)-N-hydroxy-1′-(2-methoxyphenyl)-2′-oxo-3,4-dihydro-1H-spiro[naphthalene-2,3′-pyrrolidine]-6-carboxamide]	≤ 100 nM
Cc1ncccc1N1CC[C@@]2(CCc3cc(C(=O)NO)ccc3C2)C1=O [Compound I-132, (S)-N-hydroxy-1′-(2-methylpyridin-3-yl)-2′-oxo-3,4-dihydro-1H-spiro[naphthalene-2,3′-pyrrolidine]-6-carboxamide]	≤ 100 nM
O=C(NO)c1ccc2c(c1)CCC1(CCN(c3ccccc3)C1=O)O2 (centres unmarked) [Compound I-231, N-hydroxy-2′-oxo-1′-phenylspiro[chromane-2,3′-pyrrolidine]-6-carboxamide]	100 to 500 nM
O=C(NO)c1ccc2c(c1)CC[C@@]1(CCN(Cc3ccc(OC(F)(F)F)cc3)C1=O)C2 [Compound I-80, (S)-N-hydroxy-2′-oxo-1′-(4-(trifluoromethoxy)benzyl)-3,4-dihydro-1H-spiro[naphthalene-2,3′-pyrrolidine]-6-carboxamide]	100 to 500 nM
COCCn1c(N2CC[C@@]3(CCc4cc(C(=O)NO)ccc4C3)C2=O)nc2ccccc21 [Compound I-13, (S)-N-hydroxy-1′-(1-(2-methoxyethyl)-1H-benzo[d]imidazol-2-yl)-2′-oxo-3,4-dihydro-1H-spiro[naphthalene-2,3′-pyrrolidine]-6-carboxamide]	≤ 100 nM
O=C(NO)c1ccc2c(c1)CC[C@]1(CCN(c3cnc4ccccc4c3)C1=O)C2 [Compound I-95, (R)-N-hydroxy-2′-oxo-1′-(quinolin-3-yl)-3,4-dihydro-1H-spiro[naphthalene-2,3′-pyrrolidine]-6-carboxamide]	≤ 100 nM
COc1cncc(N2CC[C@]3(CCc4cc(C(=O)NO)ccc4C3)C2=O)c1 [Compound I-143, (R)-N-hydroxy-1′-(5-methoxypyridin-3-yl)-2′-oxo-3,4-dihydro-1H-spiro[naphthalene-2,3′-pyrrolidine]-6-carboxamide]	≤ 100 nM
O=C(NO)c1ccc2c(c1)CC[C@@]1(CCCN(CC3CCC3)C1=O)C2 (single isomer, unassigned) [Compound I-185]	≤ 100 nM
COc1cccc(N2CC[C@]3(CCc4cc(C(=O)NO)ccc4C3)C2=O)c1 [Compound I-108, (R)-N-hydroxy-1′-(3-methoxyphenyl)-2′-oxo-3,4-dihydro-1H-spiro[naphthalene-2,3-pyrrolidine]-6-carboxamide]	≤ 100 nM

From patent US9630922B2, “3-spiro-7-hydroxamic acid tetralins as HDAC inhibitors” (Forma Therapeutics, Inc., priority 2015, dated 2017)
